The compounds below were run against Integrin alpha-IIb/beta-3 (Homo sapiens, UniProt P05106+P08514) (assay: In vitro inhibition of biotinylated fibrinogen binding to immobilized integrin alpha IIb beta3).
Type: protein-complex assay

Sequence of Integrin alpha-IIb/beta-3 (P05106 27-788 limits assumed): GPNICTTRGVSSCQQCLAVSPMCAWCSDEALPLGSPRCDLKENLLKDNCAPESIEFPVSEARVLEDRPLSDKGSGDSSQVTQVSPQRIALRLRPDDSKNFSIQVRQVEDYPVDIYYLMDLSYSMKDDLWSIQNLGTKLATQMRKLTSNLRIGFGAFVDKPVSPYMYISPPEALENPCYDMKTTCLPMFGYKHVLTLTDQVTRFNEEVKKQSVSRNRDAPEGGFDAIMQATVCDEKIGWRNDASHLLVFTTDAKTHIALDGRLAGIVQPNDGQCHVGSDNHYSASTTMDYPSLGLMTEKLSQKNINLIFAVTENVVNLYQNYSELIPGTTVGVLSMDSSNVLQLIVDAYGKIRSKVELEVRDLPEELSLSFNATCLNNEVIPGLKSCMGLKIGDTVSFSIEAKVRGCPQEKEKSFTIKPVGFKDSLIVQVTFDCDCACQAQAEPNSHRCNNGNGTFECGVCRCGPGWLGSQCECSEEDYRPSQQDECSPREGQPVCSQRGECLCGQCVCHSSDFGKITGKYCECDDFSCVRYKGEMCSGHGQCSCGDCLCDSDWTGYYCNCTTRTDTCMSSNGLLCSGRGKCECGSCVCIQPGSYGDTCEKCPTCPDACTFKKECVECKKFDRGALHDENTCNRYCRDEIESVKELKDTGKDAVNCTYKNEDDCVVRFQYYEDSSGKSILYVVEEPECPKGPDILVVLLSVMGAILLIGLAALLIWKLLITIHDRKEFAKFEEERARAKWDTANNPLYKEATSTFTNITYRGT
Sequence of Integrin alpha-IIb/beta-3 (P08514 32-887 limits assumed): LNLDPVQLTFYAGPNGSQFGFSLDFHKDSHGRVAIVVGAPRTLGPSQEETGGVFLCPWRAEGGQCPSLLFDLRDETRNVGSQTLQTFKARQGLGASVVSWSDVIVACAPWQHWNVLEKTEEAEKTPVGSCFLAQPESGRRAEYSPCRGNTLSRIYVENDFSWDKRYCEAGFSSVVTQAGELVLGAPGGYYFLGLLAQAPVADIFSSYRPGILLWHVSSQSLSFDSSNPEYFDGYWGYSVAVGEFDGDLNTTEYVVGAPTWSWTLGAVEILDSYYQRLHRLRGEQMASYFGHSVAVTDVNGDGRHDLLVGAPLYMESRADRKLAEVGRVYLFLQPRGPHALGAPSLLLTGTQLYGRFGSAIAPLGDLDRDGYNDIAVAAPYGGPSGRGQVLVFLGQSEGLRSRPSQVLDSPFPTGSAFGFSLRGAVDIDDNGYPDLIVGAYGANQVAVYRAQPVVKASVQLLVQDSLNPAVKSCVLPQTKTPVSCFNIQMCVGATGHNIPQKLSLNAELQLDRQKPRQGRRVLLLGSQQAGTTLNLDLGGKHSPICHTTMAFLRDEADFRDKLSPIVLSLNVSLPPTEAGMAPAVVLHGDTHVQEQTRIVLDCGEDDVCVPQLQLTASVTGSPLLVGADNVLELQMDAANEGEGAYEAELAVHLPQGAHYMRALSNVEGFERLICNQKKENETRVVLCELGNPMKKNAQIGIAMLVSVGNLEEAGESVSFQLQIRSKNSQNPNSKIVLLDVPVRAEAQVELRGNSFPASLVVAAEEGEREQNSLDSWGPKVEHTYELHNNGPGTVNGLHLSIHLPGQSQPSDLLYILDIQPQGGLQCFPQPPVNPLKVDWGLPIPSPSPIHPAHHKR
Sequence of Integrin alpha-IIb/beta-3 (P08514 891-1039 limits assumed): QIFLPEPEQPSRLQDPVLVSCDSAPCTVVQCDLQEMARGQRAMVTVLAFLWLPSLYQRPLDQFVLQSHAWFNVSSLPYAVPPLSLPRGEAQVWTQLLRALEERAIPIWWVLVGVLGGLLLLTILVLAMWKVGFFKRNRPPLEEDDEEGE

| IC50 [nM] | Compound |
| --- | --- |
| 6 | O=C(O)CCNC(=O)C1CCCN(C(=O)CCC2CCNCC2)C1 (centres undefined) |
| > 100 | O=C(O)CCNC(=O)C1CCN(C(=O)CCC2CCNCC2)CC1 |
| 3 | O=C(O)C[C@@H](C#Cc1ccccc1)NC(=O)[C@@H]1CCCN(C(=O)CCC2CCNCC2)C1 |
| 3 | COC(=O)C(CC(=O)O)NC(=O)C1CCCN(C(=O)CCC2CCNCC2)C1 (centres undefined) |
| > 50000 | O=C(O)C1CCCC(NC(=O)C2CCCN(C(=O)CCC3CCNCC3)C2)C1 (centres undefined) |
| 200 | O=C(NCCS(=O)(=O)O)C1CCCN(C(=O)CCC2CCNCC2)C1 (centres undefined) |
| 3 | CC(CC(=O)O)NC(=O)C1CCCN(C(=O)CCC2CCNCC2)C1 (centres undefined) |
| 9 | O=C(O)C1CN(C(=O)C2CCCN(C(=O)CCC3CCNCC3)C2)CCC1=O (centres undefined) |
| 21 | CC(C)(C)C#C[C@H](CC(=O)O)NC(=O)[C@@H]1CCCN(C(=O)CCC2CCNCC2)C1 |
| 10 | O=C(O)CCNC(=O)C1CCCCN(C(=O)CCC2CCNCC2)C1 (centres undefined) |
| 20 | O=C(O)CCNC(=O)C1CCCN(C(=O)NCC2CCNCC2)C1 (centres undefined) |
| 5 | O=C(O)C(O)CNC(=O)C1CCCN(C(=O)CCC2CCNCC2)C1 (centres undefined) |
| 20 | O=C(O)CCNC(=O)C1CCCN(C(=O)OCC2CCNCC2)C1 (centres undefined) |
| 2 | O=C(O)CCNC(=O)C1CCCN(C(=O)CCN2CCNCC2)C1 (centres undefined) |
| 20 | O=C(O)CCNC(=O)C1CCCN(S(=O)(=O)CCC2CCNCC2)C1 (centres undefined) |
| 0.1 | O=C(O)C[C@H](NC(=O)[C@@H]1CCCN(C(=O)CCC2CCNCC2)C1)c1cccs1 |
| 200 | CN(CCC(=O)O)C(=O)C1CCCN(C(=O)CCC2CCNCC2)C1 (centres undefined) |
| > 100 | CC(CNC(=O)C1CCCN(C(=O)CCC2CCNCC2)C1)C(=O)O (centres undefined) |
| 2 | CC(C)CC(CC(=O)O)NC(=O)C1CCCN(C(=O)CCC2CCNCC2)C1 (centres undefined) |
| 4 | O=C(O)CCNC(=O)[C@H]1CCCN(C(=O)CCC2CCNCC2)C1 |
| 0.1 | O=C(O)C[C@H](NC(=O)[C@@H]1CCCN(C(=O)CCC2CCNCC2)C1)c1cnc2ccccc2c1 |
| 6 | O=C(O)CCNC(=O)[C@@H]1CCCN(C(=O)CCC2CCNCC2)C1 |
| 600 | O=C(NCCc1nnn[nH]1)C1CCCN(C(=O)CCC2CCNCC2)C1 (centres undefined) |
| 7 | O=C(O)CCNC(=O)C1CCN(C(=O)CCC2CCNCC2)C1 (centres undefined) |
